Assay results reported in US20170233413A1, “SUBSTITUTED ANNULATED PYRIMIDINES AND USE THEREOF” (Bayer Pharma Aktiengesellschaft, priority 2014, published 2017).

Experiments:
[1] = biological target: T1, recombinant guanylate cyclase reporter cell line (Rattus norvegicus, UniProt P19686+P20595); test: Effect on a recombinant guanylate cyclase reporter cell line; format: cell-based; conditions: MEC = minimum effective concentration; in some cases means of individual determinations
T1 construct: expressed in transfected cells
T1 sequence (P19686 1-690): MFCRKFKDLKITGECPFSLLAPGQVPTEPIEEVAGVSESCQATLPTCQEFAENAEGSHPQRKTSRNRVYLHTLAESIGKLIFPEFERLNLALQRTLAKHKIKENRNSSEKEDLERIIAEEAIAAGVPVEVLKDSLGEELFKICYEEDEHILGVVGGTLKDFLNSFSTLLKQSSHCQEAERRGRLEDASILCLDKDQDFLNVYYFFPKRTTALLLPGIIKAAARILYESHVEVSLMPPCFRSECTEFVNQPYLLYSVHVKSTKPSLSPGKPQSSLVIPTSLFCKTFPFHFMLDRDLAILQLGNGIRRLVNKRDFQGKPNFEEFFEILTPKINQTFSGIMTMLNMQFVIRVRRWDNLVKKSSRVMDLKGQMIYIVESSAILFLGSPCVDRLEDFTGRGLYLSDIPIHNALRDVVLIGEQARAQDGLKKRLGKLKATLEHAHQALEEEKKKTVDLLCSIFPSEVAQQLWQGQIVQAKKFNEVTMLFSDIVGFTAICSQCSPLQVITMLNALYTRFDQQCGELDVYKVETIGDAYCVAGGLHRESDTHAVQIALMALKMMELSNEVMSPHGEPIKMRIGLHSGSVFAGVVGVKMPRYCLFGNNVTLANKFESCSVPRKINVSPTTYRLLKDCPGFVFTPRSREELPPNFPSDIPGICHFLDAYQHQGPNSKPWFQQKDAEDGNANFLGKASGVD
T1 sequence (P20595 1-619): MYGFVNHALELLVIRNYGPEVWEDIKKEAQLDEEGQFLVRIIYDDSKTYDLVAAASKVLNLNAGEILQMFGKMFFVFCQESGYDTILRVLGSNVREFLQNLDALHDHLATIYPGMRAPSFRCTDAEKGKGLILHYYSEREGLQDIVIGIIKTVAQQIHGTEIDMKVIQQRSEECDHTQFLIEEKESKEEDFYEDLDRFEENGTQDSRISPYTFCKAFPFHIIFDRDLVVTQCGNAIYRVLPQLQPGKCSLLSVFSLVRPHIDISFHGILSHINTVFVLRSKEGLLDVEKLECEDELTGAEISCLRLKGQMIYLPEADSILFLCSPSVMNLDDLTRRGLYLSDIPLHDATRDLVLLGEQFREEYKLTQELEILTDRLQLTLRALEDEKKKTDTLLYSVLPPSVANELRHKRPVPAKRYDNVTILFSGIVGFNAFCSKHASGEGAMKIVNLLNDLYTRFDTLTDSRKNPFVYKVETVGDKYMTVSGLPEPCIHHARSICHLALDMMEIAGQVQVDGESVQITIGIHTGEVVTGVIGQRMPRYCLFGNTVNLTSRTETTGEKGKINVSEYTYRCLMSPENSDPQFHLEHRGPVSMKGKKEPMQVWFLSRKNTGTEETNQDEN
Experimental: B-2. Effect on a Recombinant Guanylate Cyclase Reporter Cell Line
The cellular activity of the compounds of the invention is determined using a recombinant guanylate cyclase reporter cell line, as described in F. Wunder et al., Anal. Biochem. 2005, 339, 104-112. Representative values (MEC=minimum effective concentration) for the compounds of the invention are shown in the table below (Table 1B; in some cases as means of individual determinations): […]

[2] = biological target: T2, human phosphodiesterase 5 (PDE 5) (Homo sapiens, UniProt O76074); test: Inhibition of human phosphodiesterase 5 (PDE 5); format: biochemical; conditions: PDE 5 preparation from human platelets; in some cases means of individual determinations
T2 construct: PDE 5 preparations are obtained from human platelets by disruption; from tissue; host or cells: human platelets
Experimental: B-3. Inhibition of Human Phosphodiesterase 5 (PDE 5)
PDE 5 preparations are obtained from human platelets by disruption (Microfluidizer®, 800 bar, 3 passes), followed by centrifugation (75 000 g, 60 min, 4° C.) and ion exchange chromatography of the supernatant on a Mono Q 10/10 column (linear sodium chloride gradient, elution with a 0.2-0.3M solution of sodium chloride in buffer (20 mM Hepes pH 7.2, 2 mM magnesium chloride). Fractions having PDE 5 activity are combined (PDE 5 preparation) and stored at −80° C.
To determine their in vitro action on human PDE 5, the test substances are dissolved in 100% DMSO and serially diluted. Typically, dilution series (1:3) from 200 μM to 0.091 μM are prepared (resulting final concentrations in the test: 4 μM to 0.0018 μM). In each case 2 μl of the diluted substance solutions are placed into the wells of microtitre plates (Isoplate-96/200W; Perkin Elmer). Subsequently, 50 μl of a dilution of the above-described PDE 5 preparation are added. The dilution of the PDE 5 preparation is chosen such that during the later incubation less than 70% of the substrate are converted (typical dilution: 1:100; dilution buffer: 50 mM tris/hydrochloric acid pH 7.5, 8.3 mM magnesium chloride, 1.7 mM EDTA, 0.2% BSA). The substrate, [8-^3H] cyclic guanosine-3′,5′-monophosphate (1 μCi/μl; Perkin Elmer), is diluted 1:2000 with assay buffer (50 mM tris/hydrochloric acid pH 7.5, 8.3 mM magnesium chloride, 1.7 mM EDTA) to a concentration of 0.0005 μCi/μl. By addition of 50 μl (0.025 μCi) of the diluted substrate, the enzyme reaction is finally started. The test mixtures are incubated at room temperature for 60 min and the reaction is stopped by adding 25 μl of a suspension of 18 mg/ml yttrium scintillation proximity beads in water (phosphodiesterase beads for SPA assays, RPNQ 0150, Perkin Elmer). The microtitre plates are sealed with a film and left to stand at room temperature for 60 min. Subsequently, the plates are analysed for 30 s per well in a Microbeta scintillation counter (Perkin Elmer). IC50 values are determined using the graphic plot of the substance concentration against percentage PDE 5 inhibition.

With `Cc1nc2c(cc1F)c(-c1nc3c(c(C(N)=O)n1)C(C)(C(F)(F)F)C(=O)N3)nn2Cc1cccc(F)c1F` (racemic) [Example 9, rac-2-[1-(2,3-difluorobenzyl)-5-fluoro-6-methyl-1H-pyrazolo[3,4-b]pyridin-3-yl]-5-methyl-6-oxo-5-(trifluoromethyl)-6,7-dihydro-5H-pyrrolo[2,3-d]pyrimidine-4-carboxamide] the MEC [1] was 0.3 µM and the IC50 [2] was 58 nM.

For `Cc1nc2c(cc1F)c(-c1nc3c(c(C(N)=O)n1)C(C)(C(F)(F)F)C(=O)N3)nn2Cc1ccccc1F` (racemic) [Example 12, rac-2-[5-fluoro-1-(2-fluorobenzyl)-6-methyl-1H-pyrazolo[3,4-b]pyridin-3-yl]-5-methyl-6-oxo-5-(trifluoromethyl)-6,7-dihydro-5H-pyrrolo[2,3-d]pyrimidine-4-carboxamide], the MEC [1] was 0.065 µM and the IC50 [2] was 130 nM.

Compound `Cc1nc2c(cc1F)c(-c1nc3c(c(C(N)=O)n1)C(C)(C(F)(F)F)C(=O)N3)nn2Cc1c(F)ccc(F)c1F` (racemic) [Example 15, rac-2-[5-fluoro-6-methyl-1-(2,3,6-trifluorobenzyl)-1H-pyrazolo[3,4-b]pyridin-3-yl]-5-methyl-6-oxo-5-(trifluoromethyl)-6,7-dihydro-5H-pyrrolo[2,3-d]pyrimidine-4-carboxamide] has an MEC [1] of 0.2 µM and an IC50 [2] of 1200 nM.

`Cc1nc2c(cc1F)c(-c1nc3c(c(C(N)=O)n1)C(C)(C(F)(F)F)C(=O)N3)nn2Cc1ncccc1F` (racemic) [Example 18, rac-2-{5-Fluoro-1-[(3-fluoropyridin-2-yl)methyl]-6-methyl-1H-pyrazolo[3,4-b]pyridin-3-yl}-5-methyl-6-oxo-5-(trifluoromethyl)-6,7-dihydro-5H-pyrrolo[2,3-d]pyrimidine-4-carboxamide] gave an MEC [1] of 0.3 µM and an IC50 [2] of 570 nM.

With `CC1(C(F)(F)F)C(=O)Nc2nc(-c3nn(Cc4ncccc4F)c4ncc(F)cc34)nc(C(N)=O)c21` (racemic) [Example 21, rac-2-{5-Fluoro-1-[(3-fluoropyridin-2-yl)methyl]-1H-pyrazolo[3,4-b]pyridin-3-yl}-5-methyl-6-oxo-5-(trifluoromethyl)-6,7-dihydro-5H-pyrrolo[2,3-d]pyrimidine-4-carboxamide] the MEC [1] was 3 µM and the IC50 [2] was 230 nM.

`CCC(C)NC(=O)c1nc(-c2nn(Cc3ccccc3F)c3ncccc23)nc2c1C(C)(C)C(=O)N2` (racemic) [Example 63, rac-N-(butan-2-yl)-2-[1-(2-fluorobenzyl)-1H-pyrazolo[3,4-b]pyridin-3-yl]-5,5-dimethyl-6-oxo-6,7-dihydro-5H-pyrrolo[2,3-d]pyrimidine-4-carboxamide] was tested, and the MEC [1] was 0.1 µM and the IC50 [2] was 11 nM.

For `CC1(C)C(=O)Nc2nc(-c3nn(Cc4ccccc4F)c4ncccc34)nc(C(=O)NC3CCOC3)c21` (racemic) [Example 65, rac-2-[1-(2-fluorobenzyl)-1H-pyrazolo[3,4-b]pyridin-3-yl]-5,5-dimethyl-6-oxo-N-(tetrahydrofuran-3-yl)-6,7-dihydro-5H-pyrrolo[2,3-d]pyrimidine-4-carboxamide], the MEC [1] was 1 µM and the IC50 [2] was 6.8 nM.

`CC1(C)C(=O)Nc2nc(-c3nn(Cc4ccccc4F)c4ncccc34)nc(C(=O)NCC(N)=O)c21` [Example 75, N-(2-amino-2-oxoethyl)-2-[1-(2-fluorobenzyl)-1H-pyrazolo[3,4-b]pyridin-3-yl]-5,5-dimethyl-6-oxo-6,7-dihydro-5H-pyrrolo[2,3-d]pyrimidine-4-carboxamide] was tested, and the MEC [1] was 0.3 µM.

With `Cc1cnccc1NC(=O)c1nc(-c2nn(Cc3ccccc3F)c3ncccc23)nc2c1C(C)(C)C(=O)N2` [Example 101, 2-[1-(2-fluorobenzyl)-1H-pyrazolo[3,4-b]pyridin-3-yl]-5,5-dimethyl-N-(3-methylpyridin-4-yl)-6-oxo-6,7-dihydro-5H-pyrrolo[2,3-d]pyrimidine-4-carboxamide] the MEC [1] was 0.3 µM.

For `CC(C)(C)CNC(=O)c1nc(-c2nn(Cc3ccccc3F)c3ncccc23)nc2c1C(C)(C)C(=O)N2` [Example 102, N-(2,2-dimethylpropyl)-2-[1-(2-fluorobenzyl)-1H-pyrazolo[3,4-b]pyridin-3-yl]-5,5-dimethyl-6-oxo-6,7-dihydro-5H-pyrrolo[2,3-d]pyrimidine-4-carboxamide], the MEC [1] was 0.3 µM.

`Cc1cc(NC(=O)c2nc(-c3nn(Cc4ccccc4F)c4ncccc34)nc3c2C(C)(C)C(=O)N3)ccn1` [Example 106, 2-[1-(2-fluorobenzyl)-1H-pyrazolo[3,4-b]pyridin-3-yl]-5,5-dimethyl-N-(2-methylpyridin-4-yl)-6-oxo-6,7-dihydro-5H-pyrrolo[2,3-d]pyrimidine-4-carboxamide] was tested, and the MEC [1] was 0.3 µM.

For `CN(CCC(N)=O)C(=O)c1nc(-c2nn(Cc3ccccc3F)c3ncccc23)nc2c1C(C)(C)C(=O)N2` [Example 110, N-(3-amino-3-oxopropyl)-2-[1-(2-fluorobenzyl)-1H-pyrazolo[3,4-b]pyridin-3-yl]-N,5,5-trimethyl-6-oxo-6,7-dihydro-5H-pyrrolo[2,3-d]pyrimidine-4-carboxamide], the MEC [1] was 1 µM.

For `CC1(C)C(=O)Nc2nc(-c3nn(Cc4ccccc4F)c4ncccc34)nc(C(=O)Nc3ccncc3)c21` [Example 116, 2-[1-(2-fluorobenzyl)-1H-pyrazolo[3,4-b]pyridin-3-yl]-5,5-dimethyl-6-oxo-N-(pyridin-4-yl)-6,7-dihydro-5H-pyrrolo[2,3-d]pyrimidine-4-carboxamide], the MEC [1] was 1 µM.

Compound `CCCCCCNC(=O)c1nc(-c2nn(Cc3ccccc3F)c3ncccc23)nc2c1C(C)(C)C(=O)N2` [Example 124, 2-[1-(2-fluorobenzyl)-1H-pyrazolo[3,4-b]pyridin-3-yl]-N-hexyl-5,5-dimethyl-6-oxo-6,7-dihydro-5H-pyrrolo[2,3-d]pyrimidine-4-carboxamide] has an MEC [1] of 1 µM.

In the case of `CC(C)(C)CCNC(=O)c1nc(-c2nn(Cc3ccccc3F)c3ncccc23)nc2c1C(C)(C)C(=O)N2` [Example 135, N-(3,3-dimethylbutyl)-2-[1-(2-fluorobenzyl)-1H-pyrazolo[3,4-b]pyridin-3-yl]-5,5-dimethyl-6-oxo-6,7-dihydro-5H-pyrrolo[2,3-d]pyrimidine-4-carboxamide], the MEC [1] is reported as 1 µM.
